Test results from patent US20250163104A1, “MACROCYCLIC IMMUNOMODULATORS” (priority 2021, published 2025).
Where a SMILES comes first, the peptide text is derived from it. Bridges are numbered along the chain shown (N, C = ends). [ ]: non-standard residue; d: D form. The star is where a group is joined. Phe(3-COOH) = N[C@@H](Cc1cccc(C(=O)O)c1)C(=O)O; Phe(4-COOH) = N[C@@H](Cc1ccc(C(=O)O)cc1)C(=O)O; Trp(7-F) = N[C@@H](Cc1c[nH]c2c(F)cccc12)C(=O)O; Phe(4-CH2NH2) = NCc1ccc(C[C@H](N)C(=O)O)cc1; Bip = N[C@@H](Cc1ccc(-c2ccccc2)cc1)C(=O)O; Phe(4-NH2) = Nc1ccc(C[C@H](N)C(=O)O)cc1; Phe(3-Me) = Cc1cccc(C[C@H](N)C(=O)O)c1; Cha = N[C@@H](CC1CCCCC1)C(=O)O; Cit = NC(=O)NCCC[C@H](N)C(=O)O; Hpra = C#CCC[C@H](N)C(=O)O; dDab = NCC[C@@H](N)C(=O)O; Carboxymethyl = O=C(O)C*; Orn = NCCC[C@H](N)C(=O)O; dDap = NC[C@@H](N)C(=O)O; Dab = NCC[C@H](N)C(=O)O; Dap = NC[C@H](N)C(=O)O; X2 = Cc1cnc(CN*)cn1; Propargyl = C#CC*

molecular target: T1, human PD-1 / PD-L1-Ig binding on Jurkat cell line over-expressing human PD-1 (Jurkat-PD-1) (Homo sapiens, UniProt Q15116); experiment: Jurkat-PD-1 Cell Binding High-Content Screening Assay (CBA); type: cell-based; conditions: Jurkat-PD-1 cells, PE-labeled PD-L1-Ig 20 nM final; read-out: Jurkat HPD1_PDL1 IC50
T1 construct: expressed in transfected cells; host or cells: Jurkat
Method in brief: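 Read-out: high-content imaging of PE-tagged PD-L1-Ig bound to Jurkat cells overexpressing human PD-1, after fixation with 4% paraformaldehyde and Hoechst 33342 nuclear staining. Ligand was used at 20 nM final for 1 hour, after a 2 h compound exposure at 37° C in serum-containing DMEM.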

T1 sequence (Q15116 25-288): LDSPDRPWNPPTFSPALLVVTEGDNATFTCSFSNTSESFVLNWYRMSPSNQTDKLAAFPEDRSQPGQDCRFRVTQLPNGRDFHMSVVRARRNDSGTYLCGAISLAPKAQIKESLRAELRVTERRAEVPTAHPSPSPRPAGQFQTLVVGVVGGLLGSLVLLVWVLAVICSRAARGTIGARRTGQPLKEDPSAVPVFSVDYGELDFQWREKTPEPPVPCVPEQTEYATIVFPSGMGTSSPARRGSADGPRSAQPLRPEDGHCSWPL

Row | SMILES | IC50 [nM]
1 | Cc1cccc(C[C@@H]2NC(=O)[C@H](CC(=O)O)NC(=O)[C@H](Cc3ccc(OCC(=O)O)cc3)NC(=O)[C@H](CN)NC(=O)CSC[C@@H](C(=O)N[C@@H](C)C(=O)NCc3cnc(C)cn3)NC(=O)[C@H](CN)NC(=O)[C@H](C(C)C)NC(=O)[C@H](CC3CCCCC3)NC(=O)[C@H](CCN)NC(=O)[C@@H](CC(C)C)NC(=O)[C@H](CCCN)NC(=O)[C@H](CCCNC(N)=O)NC(=O)[C@H](Cc3ccc(-c4ccccc4)cc3)NC(=O)[C@H](C(C)C)NC2=O)c1 [Compound 2019] ({CH2CO}-[Dap]Y(Carboxymethyl)D[Phe(3-Me)]V[Bip][Cit][Orn][dL][Dab][Cha]V[Dap]CA-X2; thioether N-14) | 12.8
2 | CC(C)C[C@H]1NC(=O)[C@H](CCCN)NC(=O)[C@H](C(C)C)NC(=O)[C@H](Cc2ccc(-c3ccccc3)cc2)NC(=O)[C@H](C(C)C)NC(=O)[C@H](Cc2c[nH]c3c(F)cccc23)NC(=O)[C@H](CC(=O)O)NC(=O)[C@H](Cc2ccc(OCC(=O)O)cc2)NC(=O)[C@H](CN)NC(=O)CSC[C@@H](C(=O)N[C@@H](CCN)C(N)=O)NC(=O)[C@H]([C@@H](C)O)NC(=O)[C@H](C(C)C)NC(=O)[C@H](CC2CCCCC2)NC(=O)[C@H](CCN)NC1=O [Compound 2020] ({CH2CO}-[Dap]Y(Carboxymethyl)D[Trp(7-F)]V[Bip]V[Orn][dL][Dab][Cha]VTC[Dab]-NH2; thioether N-14) | 13.1
3 | CC(C)C[C@@H]1NC(=O)[C@H](Cc2c[nH]c3ccccc23)NC(=O)[C@H](CC(=O)O)NC(=O)[C@H](Cc2cccc(C(=O)O)c2)NC(=O)[C@H](CN)NC(=O)CSC[C@@H](C(=O)NCC(N)=O)NC(=O)[C@H](CO)NC(=O)[C@H](C(C)C)NC(=O)[C@H](CC2CCCCC2)NC(=O)[C@H](CCN)NC(=O)[C@@H](CC(C)C)NC(=O)[C@H](CCCN)NC(=O)[C@H](C(C)C)NC(=O)[C@H](Cc2ccc(-c3ccccc3)cc2)NC1=O [Compound 2021] ({CH2CO}-[Dap][Phe(3-COOH)]DWL[Bip]V[Orn][dL][Dab][Cha]VSCG-NH2; thioether N-14) | 15.1
4 | C#CCOc1ccc(C[C@@H]2NC(=O)[C@H](Cc3cccc(C)c3)NC(=O)[C@H](CC(=O)O)NC(=O)[C@H](Cc3ccc(C(=O)O)cc3)NC(=O)[C@H](CN)NC(=O)CSC[C@@H](C(=O)N[C@@H](CCN)C(N)=O)NC(=O)[C@H]([C@@H](C)O)NC(=O)[C@H](C(C)C)NC(=O)[C@H](CC3CCCCC3)NC(=O)[C@H](CCN)NC(=O)[C@@H](CC(C)C)NC(=O)[C@H](CCCN)NC(=O)[C@H](C(C)C)NC(=O)[C@H](Cc3ccc(-c4ccccc4)cc3)NC2=O)cc1 [Compound 2022] ({CH2CO}-[Dap][Phe(4-COOH)]D[Phe(3-Me)]Y(Propargyl)[Bip]V[Orn][dL][Dab][Cha]VTC[Dab]-NH2; thioether N-14) | 6.9
5 | C#CCC[C@@H]1NC(=O)[C@@H](CC(C)C)NC(=O)[C@H](CCCN)NC(=O)[C@H](C(C)C)NC(=O)[C@H](Cc2ccc(-c3ccccc3)cc2)NC(=O)[C@H](C(C)C)NC(=O)[C@H](Cc2cccc(C)c2)NC(=O)[C@H](CC(=O)O)NC(=O)[C@H](Cc2ccc(C(=O)O)cc2)NC(=O)[C@H](CN)NC(=O)CSC[C@@H](C(=O)N[C@@H](CCN)C(N)=O)NC(=O)[C@H]([C@@H](C)O)NC(=O)[C@H](C(C)C)NC(=O)[C@H](CC2CCCCC2)NC1=O [Compound 2025] ({CH2CO}-[Dap][Phe(4-COOH)]D[Phe(3-Me)]V[Bip]V[Orn][dL][Hpra][Cha]VTC[Dab]-NH2; thioether N-14) | 15
6 | C#CCOc1ccc(C[C@@H]2NC(=O)[C@@H](CC(C)C)NC(=O)[C@H](CCCN)NC(=O)[C@H](C(C)C)NC(=O)[C@H](Cc3ccc(-c4ccccc4)cc3)NC(=O)[C@H](C(C)C)NC(=O)[C@H](Cc3cccc(C)c3)NC(=O)[C@H](CC(=O)O)NC(=O)[C@H](Cc3ccc(C(=O)O)cc3)NC(=O)[C@H](CN)NC(=O)CSC[C@@H](C(=O)N[C@@H](CCN)C(N)=O)NC(=O)[C@H]([C@@H](C)O)NC(=O)[C@H](C(C)C)NC(=O)[C@H](CC3CCCCC3)NC2=O)cc1 [Compound 2026] ({CH2CO}-[Dap][Phe(4-COOH)]D[Phe(3-Me)]V[Bip]V[Orn][dL]Y(Propargyl)[Cha]VTC[Dab]-NH2; thioether N-14) | 133
7 | C#CCC[C@@H]1NC(=O)[C@H](CC2CCCCC2)NC(=O)[C@H](CCN)NC(=O)[C@@H](CC(C)C)NC(=O)[C@H](CCCN)NC(=O)[C@H](C(C)C)NC(=O)[C@H](Cc2ccc(-c3ccccc3)cc2)NC(=O)[C@H](C(C)C)NC(=O)[C@H](Cc2cccc(C)c2)NC(=O)[C@H](CC(=O)O)NC(=O)[C@H](Cc2ccc(C(=O)O)cc2)NC(=O)[C@H](CN)NC(=O)CSC[C@@H](C(=O)N[C@@H](CCN)C(N)=O)NC(=O)[C@H]([C@@H](C)O)NC1=O [Compound 2027] ({CH2CO}-[Dap][Phe(4-COOH)]D[Phe(3-Me)]V[Bip]V[Orn][dL][Dab][Cha][Hpra]TC[Dab]-NH2; thioether N-14) | 10.3
8 | Cc1cccc(C[C@@H]2NC(=O)[C@H](CC(=O)O)NC(=O)[C@H](Cc3ccc(C(=O)O)cc3)NC(=O)[C@H](CN)NC(=O)CSC[C@@H](C(=O)N[C@@H](CCN)C(N)=O)NC(=O)[C@@H](CCN)NC(=O)[C@H](C(C)C)NC(=O)[C@H](CC3CCCCC3)NC(=O)[C@H](CCN)NC(=O)[C@@H](CC(C)C)NC(=O)[C@H](CCCN)NC(=O)[C@H](C(C)C)NC(=O)[C@H](Cc3ccc(-c4ccccc4)cc3)NC(=O)[C@H](C(C)C)NC2=O)c1 [Compound 2029] ({CH2CO}-[Dap][Phe(4-COOH)]D[Phe(3-Me)]V[Bip]V[Orn][dL][Dab][Cha]V[dDab]C[Dab]-NH2; thioether N-14) | 4.1
9 | Cc1cccc(C[C@@H]2NC(=O)[C@H](CC(=O)O)NC(=O)[C@H](Cc3ccc(C(=O)O)cc3)NC(=O)[C@H](CN)NC(=O)CSC[C@@H](C(N)=O)NC(=O)[C@H](CO)NC(=O)[C@H](C(C)C)NC(=O)[C@H](CC3CCCCC3)NC(=O)[C@H](CCN)NC(=O)[C@@H](CC(C)C)NC(=O)[C@H](CCCN)NC(=O)[C@H](C(C)C)NC(=O)[C@H](Cc3ccc(-c4ccccc4)cc3)NC(=O)[C@H](Cc3ccc(CN)cc3)NC2=O)c1 [Compound 2031] ({CH2CO}-[Dap][Phe(4-COOH)]D[Phe(3-Me)][Phe(4-CH2NH2)][Bip]V[Orn][dL][Dab][Cha]VSC-NH2; thioether N-14) | 10.9

The remaining molecules from weak to strong by IC50, led by results:

Row | IC50 [nM] | SMILES
10 | 18.1 | CC(C)C[C@H]1NC(=O)[C@H](CCCN)NC(=O)[C@H](C(C)C)NC(=O)[C@H](Cc2ccc(-c3ccccc3)cc2)NC(=O)[C@H](C(C)C)NC(=O)[C@H](Cc2ccc(N)cc2)NC(=O)[C@H](CC(=O)O)NC(=O)[C@H](Cc2ccc(OCC(=O)O)cc2)NC(=O)[C@H](CN)NC(=O)CSC[C@@H](C(=O)N[C@@H](CCN)C(N)=O)NC(=O)[C@H](CCCCN)NC(=O)[C@H](C(C)C)NC(=O)[C@H](CC2CCCCC2)NC(=O)[C@H](CCN)NC1=O [Compound 2032] ({CH2CO}-[Dap]Y(Carboxymethyl)D[Phe(4-NH2)]V[Bip]V[Orn][dL][Dab][Cha]VKC[Dab]-NH2; thioether N-14)
11 | 14.7 | Cc1cccc(C[C@@H]2NC(=O)[C@H](CC(=O)O)NC(=O)[C@H](Cc3ccc(C(=O)O)cc3)NC(=O)[C@H](CN)NC(=O)CSC[C@@H](C(=O)N[C@@H](CCN)C(N)=O)NC(=O)[C@@H](CN)NC(=O)[C@H](C(C)C)NC(=O)[C@H](CC3CCCCC3)NC(=O)[C@H](CCN)NC(=O)[C@@H](CC(C)C)NC(=O)[C@H](CCCN)NC(=O)[C@H](C(C)C)NC(=O)[C@H](Cc3ccc(-c4ccccc4)cc3)NC(=O)[C@H](C(C)C)NC2=O)c1 [Compound 2030] ({CH2CO}-[Dap][Phe(4-COOH)]D[Phe(3-Me)]V[Bip]V[Orn][dL][Dab][Cha]V[dDap]C[Dab]-NH2; thioether N-14)
12 | 13.6 | C#CCOc1ccc(C[C@@H]2NC(=O)[C@H](Cc3ccc(-c4ccccc4)cc3)NC(=O)[C@H](C(C)C)NC(=O)[C@H](Cc3cccc(C)c3)NC(=O)[C@H](CC(=O)O)NC(=O)[C@H](Cc3ccc(C(=O)O)cc3)NC(=O)[C@H](CN)NC(=O)CSC[C@@H](C(=O)N[C@@H](CCN)C(N)=O)NC(=O)[C@H]([C@@H](C)O)NC(=O)[C@H](C(C)C)NC(=O)[C@H](CC3CCCCC3)NC(=O)[C@H](CCN)NC(=O)[C@@H](CC(C)C)NC(=O)[C@H](CCCN)NC2=O)cc1 [Compound 2024] ({CH2CO}-[Dap][Phe(4-COOH)]D[Phe(3-Me)]V[Bip]Y(Propargyl)[Orn][dL][Dab][Cha]VTC[Dab]-NH2; thioether N-14)
13 | 11.4 | C#CCC[C@@H]1NC(=O)[C@H](Cc2ccc(-c3ccccc3)cc2)NC(=O)[C@H](C(C)C)NC(=O)[C@H](Cc2cccc(C)c2)NC(=O)[C@H](CC(=O)O)NC(=O)[C@H](Cc2ccc(C(=O)O)cc2)NC(=O)[C@H](CN)NC(=O)CSC[C@@H](C(=O)N[C@@H](CCN)C(N)=O)NC(=O)[C@H]([C@@H](C)O)NC(=O)[C@H](C(C)C)NC(=O)[C@H](CC2CCCCC2)NC(=O)[C@H](CCN)NC(=O)[C@@H](CC(C)C)NC(=O)[C@H](CCCN)NC1=O [Compound 2023] ({CH2CO}-[Dap][Phe(4-COOH)]D[Phe(3-Me)]V[Bip][Hpra][Orn][dL][Dab][Cha]VTC[Dab]-NH2; thioether N-14)
14 | 9.3 | C#CCOc1ccc(C[C@@H]2NC(=O)[C@H](CC3CCCCC3)NC(=O)[C@H](CCN)NC(=O)[C@@H](CC(C)C)NC(=O)[C@H](CCCN)NC(=O)[C@H](C(C)C)NC(=O)[C@H](Cc3ccc(-c4ccccc4)cc3)NC(=O)[C@H](C(C)C)NC(=O)[C@H](Cc3cccc(C)c3)NC(=O)[C@H](CC(=O)O)NC(=O)[C@H](Cc3ccc(C(=O)O)cc3)NC(=O)[C@H](CN)NC(=O)CSC[C@@H](C(=O)N[C@@H](CCN)C(N)=O)NC(=O)[C@H]([C@@H](C)O)NC2=O)cc1 [Compound 2028] ({CH2CO}-[Dap][Phe(4-COOH)]D[Phe(3-Me)]V[Bip]V[Orn][dL][Dab][Cha]Y(Propargyl)TC[Dab]-NH2; thioether N-14)
